Values of other authors, collected in patent publication EP1608381B1, “THERAPEUTIC AND CONSMETIC APPLICATION FOR A COMPOSITION CONTAINING LYCOPENE” (Touche, Marie-José, priority 2002, dated 2003).

What was measured:
[1] = relative to Bétacarotène

## C=CCc1ccc(O)c(OC)c1 [EUGENOL, eugénol]
eau
  solubilité dans l'eau: insoluble
éthanol
  solubilité dans l'éthanol: soluble

## CC(C)=CCC/C(C)=C/C=C/C(C)=C/C=C/C(C)=C/C=C/C=C(C)/C=C/C=C(C)/C=C/C=C(\C)CCC=C(C)C [lycopène, psi-psi-carotène]
[1]
  effet sur les radicaux libres, fois plus que le Bétacarotène: 2 fois

## CCCCOC(=O)c1ccc(N)cc1 [Butoforme, p-aminobenzoate de n- butyle]
Chlorure de méthylène
  solubilité dans le chlorure de méthylène: facilement soluble
Eau froide
  solubilité dans l'eau froide: pratiquement insoluble
Parts of solvent, alcool à 50°
  soluble dans p. d'alcool à 50°: 10 p.
Parts of solvent, huile d'olive
  soluble dans p. d'huile d'olive: 12,5 p.
Parts of solvent, vaseline
  soluble dans p de vaseline: 200 p
